In patent US20250017859A1, “SOLID DISPERSION, PREPARATION METHOD, AND PHARMACEUTICAL COMPOSITION THEREOF” (Anxo Pharmaceutical Co., Ltd., priority 2023, published 2025):
In brackets after ≈: the same amount, converted by molar mass. Counter-ions that a name gives are not always drawn.

Assays:
[1] = Dissolution test 1: solubility by paddle method in pH 6.0+0.01% SDS medium; format: physicochemical
Experimental: Dissolution tests of experimental group 1 to experimental group 28 produced by spray drying or hot melt extrusion, control group lurasidone HCl and lurasidone are performed to analyze the solubility of each experimental group and control group lurasidone HCl and lurasidone. The dissolution test is performed by paddle method in 500 mL of medium with a pH value of 6.0+0.01% SDS, in which a rotation speed is 100 rpm and a sampling time is 60 minutes.
For comparing the applicability of the carriers suitable for solid dispersion including lurasidone, solid dispersion of comparative group 1 (including crospovidone, a kind of common carrier ingredient) is prepared according to Example 1.2 (HME) and the weight ratio of table 12, and the solubility is tested according the abovementioned method of Example 1.3.1.

[2] = Animal test: pharmacokinetics in fasted rats; format: in vivo; settings: male, Sprague-Dawley, rat, plasma; rats under fasting state; dose equal to 10 mg/kg lurasidone HCl
Experimental: Lurasidone HCl is used as control group, experimental groups 14-17, 22 and 28 are used as tested group, the pharmacokinetics of each group is evaluated in male Sprague-Dawley rats.
Specifically, control group and experimental groups 14-17, 22 and 28 are administrated to rats under fasting state, respectively, in which the dosage contains 10 mg/kg of lurasidone HCl or the amount of lurasidone equal to 10 mg/kg lurasidone HCl. The number of experimental rats in each group is three, and the sampling time is 0, 0.25, 0.5, 1, 1.5, 2, 4, 6, 8 and 24 hours for analyzing pharmacokinetic results, which are shown in table 15.

[3] = cited from earlier work

SMILES | Solubility ([1]; Table 11, paddle method, 500 mL medium pH 6.0+0.01% SDS, 100 rpm, sampling time 60 minutes, HCl) [µg/mL] | Solubility ([1]; Table 12, carrier comparison PVAP vs crospovidone, method of Example 1.3.1, HCl) [µg/mL] | AUC(0-inf) [2] [ng·h/mL] | Cmax [2] [ng/mL] | solubility in water [3] | Solubility ([1]; Table 11, paddle method, 500 mL medium pH 6.0+0.01% SDS, 100 rpm, sampling time 60 minutes) [µg/mL] | Solubility ([1]; Table 12, carrier comparison PVAP vs crospovidone, method of Example 1.3.1) [µg/mL]
O=C1[C@@H]2[C@H]3CC[C@H](C3)[C@@H]2C(=O)N1C[C@@H]1CCCC[C@H]1CN1CCN(c2nsc3ccccc23)CC1 [Lurasidone HCl] | 0.46 | 0.46 | 102 | 32 | – | – | –
O=C1[C@@H]2[C@H]3CC[C@H](C3)[C@@H]2C(=O)N1C[C@@H]1CCCC[C@H]1CN1CCN(c2nsc3ccccc23)CC1 [Lurasidone] | – | – | – | – | lower than 0.1 mg/mL | 0.09 (≈ 0.183 µM) | 0.09 (≈ 0.183 µM)
